Assay results published in ChEMBL document CHEMBL3217601, “Optimized glucuronidation of dual pharmacology -2 agonists/M3 antagonists for the treatment of COPD” (Medchemcomm, 2011).

Key:
[1] = biological target: Muscarinic acetylcholine receptor M3 (Homo sapiens, UniProt P20309); experiment: Displacement of [3H]-N-methyl scopolamine from human cloned muscarinic M3 receptor
[2] = biological target: Beta-2 adrenergic receptor (Homo sapiens, UniProt P07550); experiment: Agonist activity at human beta-2 adrenoceptor expressed in CHO cells assessed as stimulation of intracellular cAMP production; format: functional, cell-based
Chain of Beta-2 adrenergic receptor (P07550 whole entry): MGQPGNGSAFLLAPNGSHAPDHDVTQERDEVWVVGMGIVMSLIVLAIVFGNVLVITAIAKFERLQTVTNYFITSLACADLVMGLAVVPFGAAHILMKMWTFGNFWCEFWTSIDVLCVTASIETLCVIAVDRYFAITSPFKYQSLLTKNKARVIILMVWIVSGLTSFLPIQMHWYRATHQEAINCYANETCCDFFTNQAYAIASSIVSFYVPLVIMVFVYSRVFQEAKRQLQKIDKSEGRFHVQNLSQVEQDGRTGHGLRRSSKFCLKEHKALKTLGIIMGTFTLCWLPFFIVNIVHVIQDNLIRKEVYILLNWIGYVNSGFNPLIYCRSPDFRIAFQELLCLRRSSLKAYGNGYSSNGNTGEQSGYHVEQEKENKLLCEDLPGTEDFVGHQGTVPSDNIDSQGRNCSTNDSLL

[3] = biological target: Beta-1 adrenergic receptor (Homo sapiens, UniProt P08588); experiment: Agonist activity at beta-1 adrenoceptor (unknown origin)
Chain of Beta-1 adrenergic receptor (P08588 whole entry): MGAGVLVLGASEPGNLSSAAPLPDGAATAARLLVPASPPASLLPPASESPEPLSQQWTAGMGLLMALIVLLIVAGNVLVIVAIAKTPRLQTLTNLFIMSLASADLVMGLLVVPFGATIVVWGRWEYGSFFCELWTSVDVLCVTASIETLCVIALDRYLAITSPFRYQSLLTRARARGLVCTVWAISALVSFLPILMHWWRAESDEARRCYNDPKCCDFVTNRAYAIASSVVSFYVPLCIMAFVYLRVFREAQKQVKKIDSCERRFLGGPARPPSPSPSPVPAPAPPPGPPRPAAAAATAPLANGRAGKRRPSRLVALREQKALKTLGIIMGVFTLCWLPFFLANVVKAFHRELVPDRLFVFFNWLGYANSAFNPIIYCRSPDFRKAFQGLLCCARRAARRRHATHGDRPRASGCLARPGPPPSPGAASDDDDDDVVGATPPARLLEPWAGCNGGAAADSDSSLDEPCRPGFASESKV

[4] = Intrinsic clearance in human liver microsomes assessed as glucuronidation in absence of NADPH and presence of microsomal activator Brij58 and UDPGA
[5] = Drug metabolism of the compound in human liver microsomes assessed as glucuronidation in absence of NADPH and presence of microsomal activator Brij58 and UDPGA
[6] = Therapeutic index, ratio of cardiovascular toxicity in dog to bronchodilatory activity in intratracheally dosed dog; format: organism-based, Canis lupus familiaris, Trachea; conditions: in vivo, inhaled or intranasal, read-out: TI

Chain of Muscarinic acetylcholine receptor M3 (P20309 whole entry): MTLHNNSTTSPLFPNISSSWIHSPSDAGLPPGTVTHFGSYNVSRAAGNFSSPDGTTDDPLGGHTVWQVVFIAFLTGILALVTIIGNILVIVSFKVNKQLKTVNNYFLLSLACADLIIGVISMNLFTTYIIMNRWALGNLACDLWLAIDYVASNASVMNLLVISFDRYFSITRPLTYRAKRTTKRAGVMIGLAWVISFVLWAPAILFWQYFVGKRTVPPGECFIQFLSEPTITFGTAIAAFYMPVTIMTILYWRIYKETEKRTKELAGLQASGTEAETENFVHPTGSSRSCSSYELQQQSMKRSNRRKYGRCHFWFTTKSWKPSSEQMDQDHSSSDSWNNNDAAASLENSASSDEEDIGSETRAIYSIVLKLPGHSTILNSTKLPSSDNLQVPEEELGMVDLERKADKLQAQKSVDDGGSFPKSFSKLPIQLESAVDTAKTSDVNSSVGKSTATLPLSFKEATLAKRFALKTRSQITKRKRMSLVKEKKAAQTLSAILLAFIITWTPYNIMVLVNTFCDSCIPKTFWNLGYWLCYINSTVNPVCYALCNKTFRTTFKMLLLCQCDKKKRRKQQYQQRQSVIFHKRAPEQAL

Row | SMILES | Ki [1] [nM] | EC50 [2] [nM] | EC50 [3] [nM] | microsomal CLint [4] [µL/min/mg] | microsomal CLint [5] [µL/min/mg] | selectivity ratio [6]
1 | CS(=O)(=O)Nc1cc([C@@H](O)CNCCCCCCCCCN2C3CCC2CC(OC(=O)Nc2ccccc2-c2ccc(O)c(Cl)c2)C3)ccc1O (stereo not given in full) | 8.9 | 23 | > 10000 | 8 | 7.8 | –
2 | CS(=O)(=O)Nc1cc([C@@H](O)CNCCCCCCCCCN2CCC(OC(=O)Nc3ccccc3-c3cc(O)cc(F)c3)CC2)ccc1O | 76 | 65 | > 10000 | 28 | 4 | –
3 | CS(=O)(=O)Nc1cc([C@@H](O)CNCCCCCCCCCN2C[C@@H]3[C@@H](COC(=O)Nc4ccccc4-c4ccc(O)c(Cl)c4)[C@@H]3C2)ccc1O | 1.3 | 42 | > 10000 | 7 | 13 | –
4 | CS(=O)(=O)Nc1cc([C@@H](O)CNCCCCCCCCCN2CCC(OC(=O)Nc3cc(F)ccc3-c3ccc(O)c(Cl)c3)CC2)ccc1O | 4.4 | 57 | > 10000 | 15 | 6 | –
5 | CS(=O)(=O)Nc1cc([C@@H](O)CNCCCCCCCCCN2CCC(OC(=O)Nc3ccccc3-c3cc(C#N)ccc3O)CC2)ccc1O | > 73 | – | > 10000 | 33 | 3.7 | –
6 | OCc1cc(C(O)CNCCCCCCOCCCCc2ccccc2)ccc1O (stereo not given) [SALMETEROL] | – | – | – | – | – | 3
7 | CS(=O)(=O)Nc1cc([C@@H](O)CNCCCCCCCCCN2CCC(OC(=O)Nc3ccccc3-c3cc(F)cc(F)c3O)CC2)ccc1O | 22 | 102 | > 10000 | 20 | < 3.5 | –
8 | CS(=O)(=O)Nc1cc([C@@H](O)CNCCCCCCCCCCN2CCC(OC(=O)Nc3ccccc3-c3ccc(O)c(Cl)c3)CC2)ccc1O | 2 | 21 | > 10000 | 34 | 22 | –
9 | Cc1cc(C)c(NC(=O)OC2CCN(CCCCCCCCCNC[C@H](O)c3ccc(O)c(NS(C)(=O)=O)c3)CC2)c(-c2ccc(O)c(Cl)c2)c1 | 38 | 36 | > 10000 | 79 | 32 | –
10 | CS(=O)(=O)Nc1cc([C@@H](O)CNCCCCCCCCCN2CCC(OC(=O)Nc3ccccc3-c3ccccc3O)CC2)ccc1O | 18 | 90 | > 10000 | 17 | < 2 | –
11 | CS(=O)(=O)Nc1cc([C@@H](O)CNCCCCCCCCCN2C[C@H]3C[C@@]3(COC(=O)Nc3ccccc3-c3ccc(O)c(Cl)c3)C2)ccc1O | 4.3 | 17 | > 10000 | 49 | 28 | –
12 | CS(=O)(=O)Nc1cc([C@@H](O)CNCCCCCCCCCN2CC[C@@H](OC(=O)Nc3ccccc3-c3ccc(O)c(Cl)c3)C2)ccc1O | 9.2 | 24 | > 10000 | 39 | 51 | –
13 | CS(=O)(=O)Nc1cc([C@@H](O)CNCCCCCCCCCN2CCC(OC(=O)Nc3ccccc3-c3ccccc3)CC2)ccc1O | 0.39 | 74 | > 10000 | 40 | < 2 | –
14 | CS(=O)(=O)Nc1cc([C@@H](O)CNCCCCCCCCN2CCC(OC(=O)Nc3ccccc3-c3ccc(O)c(Cl)c3)CC2)ccc1O | 1.1 | 20 | > 10000 | 17 | 24 | –
